# Reference: ChEMBL document CHEMBL3797192, “Potential pancreatic lipase inhibitory activity of phenolic constituents from the root bark of Morus alba L” (Bioorg Med Chem Lett, 2016)
# Target: T1, Pancreatic triacylglycerol lipase (Sus scrofa, UniProt P00591)
# T1 sequence (P00591 whole entry): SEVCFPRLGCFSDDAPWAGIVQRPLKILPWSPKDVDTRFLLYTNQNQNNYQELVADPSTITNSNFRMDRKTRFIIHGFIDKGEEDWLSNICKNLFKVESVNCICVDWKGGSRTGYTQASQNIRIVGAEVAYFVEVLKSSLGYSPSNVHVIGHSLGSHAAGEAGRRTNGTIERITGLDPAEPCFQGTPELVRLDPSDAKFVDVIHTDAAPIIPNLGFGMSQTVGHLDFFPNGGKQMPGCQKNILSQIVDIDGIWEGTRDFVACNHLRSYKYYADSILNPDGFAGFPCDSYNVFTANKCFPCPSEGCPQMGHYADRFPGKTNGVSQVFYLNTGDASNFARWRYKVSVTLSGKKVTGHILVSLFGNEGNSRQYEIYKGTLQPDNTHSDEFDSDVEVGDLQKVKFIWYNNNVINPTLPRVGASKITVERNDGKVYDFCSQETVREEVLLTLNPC
# Test: Inhibition of porcine pancreatic lipase using p-nitrophenyl butyrate as substrate assessed as formation of p-nitrophenol preincubated for 10 mins followed by substrate addition by spectrophotometric method
row,SMILES,IC50
1,CC(C)=CCC/C(C)=C\CC/C(C)=C\Cc1c(O)cc(O)cc1-c1cc2ccc(O)cc2o1 [MULBERROFURAN W],700 nM
2,COc1cc(O)cc(/C=C/c2ccc(O)cc2)c1C/C=C(/C)CCC=C(C)C,850 nM
3,COc1cc(O)cc(-c2cc3ccc(O)cc3o2)c1C/C=C(/C)CC/C=C(/C)CCC=C(C)C,570 nM
4,COc1cc(O)cc(-c2cc3ccc(O)c(C/C=C(/C)CCC=C(C)C)c3o2)c1CC=C(C)C,920 nM

# Next, values leading:
row,IC50,SMILES
1,480 nM,CC(C)=CCC/C(C)=C\Cc1c(O)ccc2cc(-c3cc(O)c4ccoc4c3)oc12
2,390 nM,CC(C)=CCC/C(C)=C\CC/C(C)=C\Cc1c(O)cc(O)c(CC=C(C)C)c1-c1cc2ccc(O)cc2o1
3,90 nM,CC(C)=CCC/C(C)=C/Cc1c(O)ccc2cc(-c3cc(O)cc(O)c3CC=C(C)C)oc12 [MULBERROFURAN D]
4,760 nM,CC(C)=CCCC1(C)C=Cc2c(O)cc(-c3cc4ccc(O)cc4o3)cc2O1 (centres undefined)
5,710 nM,CC(C)=CCCC(C)=CCc1c(O)cc2c(c1O)C(=O)C[C@@H](c1ccc(O)c(CC=C(C)C)c1O)O2
